From US12448372B2, “Class of triaromatic compounds targeting bifunctional phosphorylation site of STAT3 and applications thereof” (SHANGHAI YUYAO BIOTECH LTD., priority 2019, dated 2025)
Like-named read-outs stand apart in the source and are kept apart here.

How the values were obtained:
[1] = molecular target: STAT3 protein (Homo sapiens, UniProt P40763); experiment: Binding activity to STAT3 protein by microscale thermophoresis (MST); details: purified STAT3 recombinant protein
Description: (1) Determination of Binding Activities of Compounds to STAT3 Protein by Microscale Thermophoresis (MST) Method
The microscale thermophoresis (MST) technique is a simple, rapid, and accurate method for quantifying biomolecular interactions. It can measure the movement of molecules in a microscopic temperature gradient field, as well as detect changes of molecular hydration shell, charge and size. When the Nanotemper microscale thermophoresis instrument locally heated by a infrared laser, molecules will move in a directional manner, then the molecular distribution ratio in the temperature gradient field are analyzed by a fluorescence to detect whether a small molecule compound binds to a target protein. The experimental operation is as follows: firstly, compounds to be tested are diluted in a gradient using MST test buffer, total 16 concentrations being configured; subsequently, the purified STAT3 recombinant protein is labeled using the HIS tag labeling kit, and the final concentration of the labeled protein is 100-200 nM; the labeled STAT3 proteins are well mixed with the diluted compounds and incubated and protected from light for 30 minutes; finally the samples were loaded by capillary tube and detected on the instrument. The binding constants (K^D) of small molecules to STAT3 protein were analyzed by Mo. analysis software.

[2] = test system: Capan-2; experiment: Cell proliferation by MTS method, Capan-2; assay type: cell-based; details: for IC50: Homo sapiens
Description: (§1) (2) Detection of Cell Proliferation by MTS Method
(§2) The MTS assay is a method for indirectly determining the number of living cells via colourimetric method. MTS is a newly synthesised tetrazole compound that reflects cell viability, which can be reduced by succinate dehydrogenase in the mitochondria of living cells to an orange-coloured formazan with an absorbance of the reduced product measured at 490 nm being in proportion to the number of living cells, thus reflecting the cell viability. This assay can be used to evaluate the effect of the compound on the proliferation of pancreatic cancer cells, thereby determining the inhibitory effect of the compound on the proliferation of pancreatic cancer cells and to calculate the IC^50. Each cells were inoculated uniformly into a 96-well plate at a density of 1-20×10^3 cells/well, 100 μL per well, and placed in a constant temperature incubator until the cells adhered to the wall. The control group was added with the corresponding medium and the experimental groups were given different concentrations of the compound prepared by the examples of the present invention, and the cells were taken out 24-96 h after administration for observing the cell state under a microscope. Under light-proof conditions, MTS was added and well mixed, the mixture was placed in a constant temperature incubator at 37° C., and the light absorption value were measured using an enzyme marker at 490 nm and the experiment was repeated for three times, IC50 was calculated with GraphPad5 Prism software.

[3] = test system: MKN45; experiment: Cell proliferation by MTS method, MKN45; assay type: cell-based; details: Homo sapiens, MKN-45; Table 1, MKN45; read-out: Tumour cell proliferative activity/IC50(nM) gastric Cancer MKN45
Description: as §1, §2

[4] = test system: Huh7; experiment: Cell proliferation by MTS method, Huh7; assay type: cell-based; details: Homo sapiens, Huh-7; Table 1, Huh7; read-out: Tumour cell proliferative activity/IC50(nM) Liver Cancer Huh7
Description: as §1, §2

[5] = test system: HCC827; experiment: Cell proliferation by MTS method, HCC827; assay type: cell-based; details: Homo sapiens; Table 1, HCC827; read-out: Tumour cell proliferative activity/IC50(nM) Lung Cancer HCC827
Description: as §1, §2

[6] = Table 1, Capan-2, read-out: Tumour cell proliferative activity/IC50(nM) Pancreatic Cancer Capan-2

STAT3 protein, sequence (P40763 whole entry): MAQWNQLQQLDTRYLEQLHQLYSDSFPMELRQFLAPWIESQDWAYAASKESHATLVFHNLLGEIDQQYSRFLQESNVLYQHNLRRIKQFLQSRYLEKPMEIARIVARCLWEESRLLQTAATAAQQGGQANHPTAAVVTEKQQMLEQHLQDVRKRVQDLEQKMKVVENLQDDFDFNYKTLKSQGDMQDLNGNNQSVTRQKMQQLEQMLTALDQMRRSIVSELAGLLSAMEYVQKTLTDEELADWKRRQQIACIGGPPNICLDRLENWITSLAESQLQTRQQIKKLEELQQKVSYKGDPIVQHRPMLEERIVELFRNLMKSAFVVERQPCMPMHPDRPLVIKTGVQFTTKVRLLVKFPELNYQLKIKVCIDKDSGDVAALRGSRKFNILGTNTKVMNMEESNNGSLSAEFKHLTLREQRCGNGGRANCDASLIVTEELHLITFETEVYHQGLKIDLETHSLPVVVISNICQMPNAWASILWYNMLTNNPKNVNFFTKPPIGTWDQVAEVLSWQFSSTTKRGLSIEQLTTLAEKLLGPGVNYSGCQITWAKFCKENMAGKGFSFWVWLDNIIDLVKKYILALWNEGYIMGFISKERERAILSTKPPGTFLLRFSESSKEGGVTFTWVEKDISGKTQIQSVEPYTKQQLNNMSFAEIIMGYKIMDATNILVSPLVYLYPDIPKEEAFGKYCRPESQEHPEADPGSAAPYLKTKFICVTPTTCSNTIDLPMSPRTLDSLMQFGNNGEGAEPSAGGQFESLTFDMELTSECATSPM

| Kd [1] | IC50 [3] | IC50 [4] | IC50 [5] | SMILES | IC50 [2, 6] | IC50 ([2]; Capan-2, FIG. 5B, read-out: IC50, inhibition of proliferation of pancreatic cancer cells) | improvement of anti-tumor proliferative activity over OPB51602 and IACS-010759 ([2]; pancreatic cancer cells, FIG. 5B) |
| --- | --- | --- | --- | --- | --- | --- | --- |
| < 10 nM | < 10 nM | < 10 nM | < 10 nM | Cn1c(C(=O)N2CCN(Cc3ccc(OCC(F)(F)F)cc3)CC2)cc2ccc(Oc3cnc(-c4nc(-c5ccc(Br)cc5)no4)cn3)cc21 [Example 12, (6-((5-(3-(4-bromophenyl)-1,2,4-oxadiazol-5-yl)pyrazin-2-yl)oxy)-1-methyl-1H-indol-2-yl) (4-(4-(2,2,2-trifluoroethoxy)benzyl)piperazin-1-yl)methanone] | < 10 nM | – | – |
| < 1000 nM | < 1000 nM | < 1000 nM | < 1000 nM | COC(=O)Cn1c(C(=O)N2CCN(Cc3ccc(OCC(F)(F)F)cc3)CC2)cc2ccc(Oc3cnc(-c4nc(-c5ccc(C(F)(F)F)cc5)no4)cn3)cc21 [Example 20] | < 1000 nM | – | – |
| < 1000 nM | < 1000 nM | < 1000 nM | < 1000 nM | Cn1c(C(=O)N2CCN(Cc3cccc(C(F)(F)F)c3)CC2)cc2ccc(Oc3cnc(-c4nc(-c5ccc(C(F)(F)F)cc5)no4)cn3)cc21 [Example 29, (1-methyl-6-((5-(3-(4-(trifluoromethyl)phenyl)-1,2,4-oxadiazol-5-yl)pyrazin-2-yl)oxy)-1H-indol-2-yl)(4-(3-(trifluoromethyl)benzyl)piperazin-1-yl)methanone] | < 1000 nM | – | – |
| < 100 nM | < 1000 nM | < 1000 nM | < 1000 nM | CCN1CCN(C(=O)c2cc3ccc(Oc4cnc(-c5nc(-c6ccc(C(F)(F)F)cc6)no5)cn4)cc3n2C)CC1 [Example 35, (4-ethylpiperazin-1-yl)(1-methyl-6-((5-(3-(4-(trifluoromethyl)phenyl)-1,2,4-oxadiazol-5-yl)pyrazin-2-yl)oxy)-1H-indol-2-yl)methanone] | < 1000 nM | – | – |
| < 10 nM | < 10 nM | < 10 nM | < 10 nM | Cn1c(C(=O)N2CCN(Cc3ccc(OCC(F)(F)F)cc3)CC2)cc2ccc(Oc3cnc(-c4nc(-c5ccc(F)cc5)no4)cn3)cc21 [Example 2, (6-((5-(3-(4-fluorophenyl)-1,2,4-oxadiazol-5-yl)pyrazin-2-yl)oxy)-1-methyl-1H-indol-2-yl)(4-(4-(2,2,2-trifluoroethoxy)benzyl)piperazin-1-yl)methanone] | < 10 nM | – | – |
| < 100 nM | < 100 nM | < 100 nM | < 100 nM | O=C(c1cc2ccc(Oc3cnc(-c4nc(-c5ccc(C(F)(F)F)cc5)no4)cn3)cc2[nH]1)N1CCN(Cc2ccc(OCC(F)(F)F)cc2)CC1 [Example 14, (6-((5-(3-(4-(trifluoromethyl)phenyl)-1,2,4-oxadiazol-5-yl)pyrazin-2-yl)oxy)-1H-indol-2-yl) (4-(4-(2,2,2-trifluoroethoxy)benzyl)piperazin-1-yl)methanone] | < 100 nM | – | – |
| < 100 nM | < 1000 nM | < 1000 nM | < 1000 nM | COC(=O)CN1CCN(C(=O)c2cc3ccc(Oc4cnc(-c5nc(-c6ccc(C(F)(F)F)cc6)no5)cn4)cc3n2C)CC1 [Example 37, Methyl 2-(4-(1-methyl-6-((5-(3-(4-(trifluoromethyl)phenyl)-1,2,4-oxadiazol-5-yl)pyrazin-2-yl)oxy)-1H-indol-2-carbonyl)piperazin-1-yl)acetate] | < 1000 nM | – | – |
| < 100 nM | < 100 nM | < 100 nM | < 100 nM | COCCn1c(C(=O)N2CCN(Cc3ccc(OCC(F)(F)F)cc3)CC2)cc2ccc(Oc3cnc(-c4nc(-c5ccc(C(F)(F)F)cc5)no4)cn3)cc21 [Example 18, (1-(2-methoxyethyl)-6-((5-(3-(4-(trifluoromethyl)phenyl)-1,2,4-oxadiazol-5-yl)pyrazin-2-yl)oxy)-1H-indol-2-yl) (4-(4-(2,2,2-trifluoroethoxy)benzyl)piperazin-1-yl)methanone] | < 100 nM | – | – |
| < 100 nM | < 1000 nM | < 1000 nM | < 1000 nM | CCCN1CCN(C(=O)c2cc3ccc(Oc4cnc(-c5nc(-c6ccc(C(F)(F)F)cc6)no5)cn4)cc3n2C)CC1 [Example 36] | < 1000 nM | – | – |
| < 10 nM | < 10 nM | < 10 nM | < 10 nM | Cn1c(C(=O)N2CCN(Cc3ccc(OCC(F)(F)F)cc3)CC2)cc2ccc(Oc3cnc(-c4nc(-c5ccc(OC(F)(F)F)cc5)no4)cn3)cc21 [Example 13, (6-((5-(3-(4-(trifluoromethoxy)phenyl)-1,2,4-oxadiazol-5-yl)pyrazin-2-yl)oxy)-1-methyl-1H-indol-2-yl) (4-(4-(2,2,2-trifluoroethoxy)benzyl)piperazin-1-yl)methanone] | < 10 nM | – | – |
| < 100 nM | < 1000 nM | < 1000 nM | < 1000 nM | Cn1c(C(=O)N2CCN(C(=O)CCl)CC2)cc2ccc(Oc3cnc(-c4nc(-c5ccc(C(F)(F)F)cc5)no4)cn3)cc21 [Example 38, 2-chloro-1-(4-(1-methyl-6-((5-(3-(4-(trifluoromethyl)phenyl)-1,2,4-oxadiazol-5-yl)pyrazin-2-yl)oxy)-1H-indol-2-carbonyl)piperazin-1-yl)ethanone] | < 1000 nM | – | – |
| < 10 nM | < 10 nM | < 10 nM | < 10 nM | CC(C)C(=O)n1c(C(=O)N2CCN(Cc3ccc(OCC(F)(F)F)cc3)CC2)cc2ccc(Oc3cnc(-c4nc(-c5ccc(C(F)(F)F)cc5)no4)cn3)cc21 [Example 19] | < 10 nM | – | – |
| < 1 nM | < 1 nM | < 1 nM | < 1 nM | Cn1c(C(=O)N2CCN(Cc3ccc(OCC(F)(F)F)cc3)CC2)cc2ccc(Oc3cnc(-c4nc(-c5cccc(C(F)(F)F)c5)no4)cn3)cc21 [Example 8, (6-((5-(3-(3-(trifluoromethyl)phenyl)-1,2,4-oxadiazol-5-yl)pyrazin-2-yl)oxy)-1-methyl-1H-indol-2-yl)(4-(4-(2,2,2-trifluoroethoxy)benzyl)piperazin-1-yl)methanone] | < 1 nM | 0.34 nM | 10 times |
| < 100 nM | < 100 nM | < 100 nM | < 100 nM | Cc1ccc(CN2CCN(C(=O)c3cc4ccc(Oc5cnc(-c6nc(-c7ccc(C(F)(F)F)cc7)no6)cn5)cc4n3C)CC2)cc1 [Example 25, (1-methyl-6-((5-(3-(4-(trifluoromethyl)phenyl)-1,2,4-oxadiazol-5-yl)pyrazin-2-yl)oxy)-1H-indol-2-yl) (4-(4-methylbenzyl)piperazin-1-yl)methanone] | < 100 nM | – | – |
| < 1000 nM | < 1000 nM | < 1000 nM | < 1000 nM | Cn1c(C(=O)N2CCN(Cc3ccc(C(F)(F)F)cc3)CC2)cc2ccc(Oc3cnc(-c4nc(-c5ccc(C(F)(F)F)cc5)no4)cn3)cc21 [Example 30, (1-methyl-6-((5-(3-(4-(trifluoromethyl)phenyl)-1,2,4-oxadiazol-5-yl)pyrazin-2-yl)oxy)-1H-indol-2-yl)(4-(4-(trifluoromethyl)benzyl)piperazin-1-yl)methanone] | < 1000 nM | – | – |
| < 100 nM | < 100 nM | < 100 nM | < 100 nM | Cn1c(C(=O)N2CCN(Cc3cccc(OCC(F)(F)F)c3)CC2)cc2ccc(Oc3cnc(-c4nc(-c5ccc(C(F)(F)F)cc5)no4)cn3)cc21 [Example 32, (1-methyl-6-((5-(3-(4-(trifluoromethyl)phenyl)-1,2,4-oxadiazol-5-yl)pyrazin-2-yl)oxy)-1H-indol-2-yl)(4-(3-(2,2,2-trifluoroethoxy)benzyl)piperazin-1-yl)methanone] | < 100 nM | – | – |
| < 100 nM | < 1000 nM | < 1000 nM | < 1000 nM | CN1CCN(C(=O)c2cc3ccc(Oc4cnc(-c5nc(-c6ccc(C(F)(F)F)cc6)no5)cn4)cc3n2C)CC1 [Example 34, (1-methyl-6-((5-(3-(4-(trifluoromethyl)phenyl)-1,2,4-oxadiazol-5-yl)pyrazin-2-yl)oxy)-1H-indol-2-yl)(4-methylpiperazin-1-yl)methanone] | < 1000 nM | – | – |
